In PubChem BioAssay (NCI):
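Cultured in 96-well plates, cells were exposed to test compound for 48 hours across five concentrations. TGI marks complete inhibition of growth.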

Key:
Assay in all cases: NCI tumour cell line growth inhibition, 48 h
DU-145 prostate = tested on: DU-145 prostate
COLO 205 colon = tested on: COLO 205 colon
SN12C renal = tested on: SN12C renal
A549 NSCLC = tested on: A549 NSCLC
LOX IMVI melanoma = tested on: LOX IMVI melanoma
CAKI-1 renal = tested on: CAKI-1 renal
MALME-3M melanoma = tested on: MALME-3M melanoma
NCI/ADR-RES ovarian = tested on: NCI/ADR-RES ovarian
HOP-92 NSCLC = tested on: HOP-92 NSCLC
U251 CNS = tested on: U251 CNS
SR leukemia = tested on: SR leukemia
UO-31 renal = tested on: UO-31 renal
OVCAR-3 ovarian = tested on: OVCAR-3 ovarian
TK-10 renal = tested on: TK-10 renal
NCI-H23 lung = tested on: NCI-H23 lung
SF-539 CNS = tested on: SF-539 CNS
786-0 renal = tested on: 786-0 renal
UACC-62 melanoma = tested on: UACC-62 melanoma
SK-MEL-5 melanoma = tested on: SK-MEL-5 melanoma
NCI-H226 lung = tested on: NCI-H226 lung
MDA-N = tested on: MDA-N
RPMI-8226 leukemia = tested on: RPMI-8226 leukemia
HL-60(TB) leukemia = tested on: HL-60(TB) leukemia
RXF 393 renal = tested on: RXF 393 renal
MCF7 breast = tested on: MCF7 breast
SNB-75 CNS = tested on: SNB-75 CNS
A498 renal = tested on: A498 renal
OVCAR-4 ovarian = tested on: OVCAR-4 ovarian
MDA-MB-231 breast = tested on: MDA-MB-231 breast
HT29 colon = tested on: HT29 colon
SNB-19 CNS = tested on: SNB-19 CNS
HS 578T breast = tested on: HS 578T breast
MOLT-4 leukemia = tested on: MOLT-4 leukemia
MDA-MB-435 = tested on: MDA-MB-435
SF-295 CNS = tested on: SF-295 CNS
PC-3 prostate = tested on: PC-3 prostate
NCI-H522 lung = tested on: NCI-H522 lung
SF-268 CNS = tested on: SF-268 CNS
M14 melanoma = tested on: M14 melanoma
SK-MEL-2 melanoma = tested on: SK-MEL-2 melanoma
SK-MEL-28 melanoma = tested on: SK-MEL-28 melanoma
HCC-2998 colon = tested on: HCC-2998 colon
UACC-257 melanoma = tested on: UACC-257 melanoma
KM12 colon = tested on: KM12 colon
T-47D breast = tested on: T-47D breast
HCT-116 colon = tested on: HCT-116 colon
HCT-15 colon = tested on: HCT-15 colon
HOP-62 NSCLC = tested on: HOP-62 NSCLC
IGROV1 ovarian = tested on: IGROV1 ovarian
SK-OV-3 ovarian = tested on: SK-OV-3 ovarian
OVCAR-8 ovarian = tested on: OVCAR-8 ovarian
ACHN renal = tested on: ACHN renal
SW-620 colon = tested on: SW-620 colon
BT-549 breast = tested on: BT-549 breast
NCI-H460 lung = tested on: NCI-H460 lung
OVCAR-5 ovarian = tested on: OVCAR-5 ovarian
EKVX NSCLC = tested on: EKVX NSCLC
CCRF-CEM leukemia = tested on: CCRF-CEM leukemia
K-562 leukemia = tested on: K-562 leukemia

SMILES: COC(=O)C12CCC(C(F)(F)C1=O)C2(C)C (centres undefined)
- TGI (DU-145 prostate): > 100 µM
- TGI (COLO 205 colon): > 100 µM
- TGI (SN12C renal): > 100 µM
- TGI (A549 NSCLC): > 100 µM
- TGI (LOX IMVI melanoma): > 100 µM
- TGI (CAKI-1 renal): > 100 µM
- TGI (MALME-3M melanoma): > 100 µM
- TGI (NCI/ADR-RES ovarian): > 100 µM
- TGI (HOP-92 NSCLC): > 100 µM
- TGI (U251 CNS): > 100 µM
- TGI (SR leukemia): > 100 µM
- TGI (UO-31 renal): > 100 µM
- TGI (OVCAR-3 ovarian): > 100 µM
- TGI (TK-10 renal): > 100 µM
- TGI (NCI-H23 lung): > 100 µM
- TGI (SF-539 CNS): > 100 µM
- TGI (786-0 renal): > 100 µM
- TGI (UACC-62 melanoma): > 100 µM
- TGI (SK-MEL-5 melanoma): > 100 µM
- TGI (NCI-H226 lung): > 100 µM
- TGI (MDA-N): > 100 µM
- TGI (RPMI-8226 leukemia): > 100 µM
- TGI (HL-60(TB) leukemia): > 100 µM
- TGI (RXF 393 renal): > 100 µM
- TGI (MCF7 breast): > 100 µM
- TGI (SNB-75 CNS): > 100 µM
- TGI (A498 renal): > 100 µM
- TGI (OVCAR-4 ovarian): > 100 µM
- TGI (MDA-MB-231 breast): > 100 µM
- TGI (HT29 colon): > 100 µM
- TGI (SNB-19 CNS): > 100 µM
- TGI (HS 578T breast): > 100 µM
- TGI (MOLT-4 leukemia): > 100 µM
- TGI (MDA-MB-435): > 100 µM
- TGI (SF-295 CNS): > 100 µM
- TGI (PC-3 prostate): > 100 µM
- TGI (NCI-H522 lung): > 100 µM
- TGI (SF-268 CNS): > 100 µM
- TGI (M14 melanoma): > 100 µM
- TGI (SK-MEL-2 melanoma): > 100 µM
- TGI (SK-MEL-28 melanoma): > 100 µM
- TGI (HCC-2998 colon): > 100 µM
- TGI (UACC-257 melanoma): > 100 µM
- TGI (KM12 colon): > 100 µM
- TGI (T-47D breast): > 100 µM
- TGI (HCT-116 colon): > 100 µM
- TGI (HCT-15 colon): > 100 µM
- TGI (HOP-62 NSCLC): > 100 µM
- TGI (IGROV1 ovarian): > 100 µM
- TGI (SK-OV-3 ovarian): > 100 µM
- TGI (OVCAR-8 ovarian): > 100 µM
- TGI (ACHN renal): > 100 µM
- TGI (SW-620 colon): > 100 µM
- TGI (BT-549 breast): > 100 µM
- TGI (NCI-H460 lung): > 100 µM
- TGI (OVCAR-5 ovarian): > 100 µM

SMILES: CC(C)c1cc(C(F)(F)F)nc(NNc2nc(C(C)C)cc(C(F)(F)F)n2)n1
- TGI (DU-145 prostate): > 100 µM
- TGI (COLO 205 colon): > 100 µM
- TGI (SN12C renal): > 100 µM
- TGI (A549 NSCLC): > 100 µM
- TGI (EKVX NSCLC): > 100 µM
- TGI (CAKI-1 renal): > 100 µM
- TGI (MALME-3M melanoma): > 100 µM
- TGI (NCI/ADR-RES ovarian): > 100 µM
- TGI (HOP-92 NSCLC): > 100 µM
- TGI (U251 CNS): > 100 µM
- TGI (SR leukemia): > 100 µM
- TGI (UO-31 renal): > 100 µM
- TGI (OVCAR-3 ovarian): 85.5 µM
- TGI (TK-10 renal): 56.1 µM
- TGI (NCI-H23 lung): > 100 µM
- TGI (SF-539 CNS): > 100 µM
- TGI (786-0 renal): > 100 µM
- TGI (UACC-62 melanoma): > 100 µM
- TGI (SK-MEL-5 melanoma): > 100 µM
- TGI (NCI-H226 lung): > 100 µM
- TGI (MDA-N): > 100 µM
- TGI (RPMI-8226 leukemia): > 100 µM
- TGI (HL-60(TB) leukemia): > 100 µM
- TGI (RXF 393 renal): > 100 µM
- TGI (MCF7 breast): > 100 µM
- TGI (SNB-75 CNS): 95.8 µM
- TGI (A498 renal): > 100 µM
- TGI (OVCAR-4 ovarian): > 100 µM
- TGI (MDA-MB-231 breast): > 100 µM
- TGI (HT29 colon): > 100 µM
- TGI (SNB-19 CNS): > 100 µM
- TGI (HS 578T breast): > 100 µM
- TGI (MOLT-4 leukemia): > 100 µM
- TGI (MDA-MB-435): > 100 µM
- TGI (SF-295 CNS): > 100 µM
- TGI (PC-3 prostate): > 100 µM
- TGI (NCI-H522 lung): > 100 µM
- TGI (SF-268 CNS): > 100 µM
- TGI (M14 melanoma): > 100 µM
- TGI (SK-MEL-2 melanoma): > 100 µM
- TGI (SK-MEL-28 melanoma): > 100 µM
- TGI (UACC-257 melanoma): > 100 µM
- TGI (KM12 colon): > 100 µM
- TGI (T-47D breast): > 100 µM
- TGI (HCT-116 colon): > 100 µM
- TGI (HCT-15 colon): > 100 µM
- TGI (HOP-62 NSCLC): 86.4 µM
- TGI (IGROV1 ovarian): > 100 µM
- TGI (SK-OV-3 ovarian): > 100 µM
- TGI (OVCAR-8 ovarian): > 100 µM
- TGI (ACHN renal): > 100 µM
- TGI (SW-620 colon): > 100 µM
- TGI (BT-549 breast): > 100 µM
- TGI (CCRF-CEM leukemia): > 100 µM
- TGI (NCI-H460 lung): > 100 µM
- TGI (OVCAR-5 ovarian): > 100 µM
- TGI (K-562 leukemia): > 100 µM

SMILES: CN1CCc2c(sc3ncn(N)c(=N)c23)C1
- TGI (DU-145 prostate): > 100 µM
- TGI (SN12C renal): > 100 µM
- TGI (A549 NSCLC): > 100 µM
- TGI (EKVX NSCLC): > 100 µM
- TGI (LOX IMVI melanoma): > 100 µM
- TGI (CAKI-1 renal): > 100 µM
- TGI (MALME-3M melanoma): > 100 µM
- TGI (NCI/ADR-RES ovarian): > 100 µM
- TGI (HOP-92 NSCLC): > 100 µM
- TGI (U251 CNS): > 100 µM
- TGI (SR leukemia): > 100 µM
- TGI (OVCAR-3 ovarian): > 100 µM
- TGI (TK-10 renal): > 100 µM
- TGI (NCI-H23 lung): > 100 µM
- TGI (SF-539 CNS): > 100 µM
- TGI (786-0 renal): > 100 µM
- TGI (UACC-62 melanoma): > 100 µM
- TGI (SK-MEL-5 melanoma): > 100 µM
- TGI (NCI-H226 lung): > 100 µM
- TGI (MDA-N): > 100 µM
- TGI (RPMI-8226 leukemia): > 100 µM
- TGI (HL-60(TB) leukemia): > 100 µM
- TGI (RXF 393 renal): > 100 µM
- TGI (MCF7 breast): > 100 µM
- TGI (SNB-75 CNS): > 100 µM
- TGI (A498 renal): > 100 µM
- TGI (OVCAR-4 ovarian): > 100 µM
- TGI (MDA-MB-231 breast): > 100 µM
- TGI (HT29 colon): > 100 µM
- TGI (SNB-19 CNS): > 100 µM
- TGI (HS 578T breast): > 100 µM
- TGI (MOLT-4 leukemia): > 100 µM
- TGI (MDA-MB-435): > 100 µM
- TGI (SF-295 CNS): > 100 µM
- TGI (PC-3 prostate): > 100 µM
- TGI (NCI-H522 lung): > 100 µM
- TGI (SF-268 CNS): > 100 µM
- TGI (M14 melanoma): > 100 µM
- TGI (SK-MEL-2 melanoma): > 100 µM
- TGI (SK-MEL-28 melanoma): > 100 µM
- TGI (UACC-257 melanoma): > 100 µM
- TGI (KM12 colon): > 100 µM
- TGI (T-47D breast): > 100 µM
- TGI (HCT-116 colon): > 100 µM
- TGI (HCT-15 colon): > 100 µM
- TGI (HOP-62 NSCLC): > 100 µM
- TGI (IGROV1 ovarian): > 100 µM
- TGI (SK-OV-3 ovarian): > 100 µM
- TGI (OVCAR-8 ovarian): > 100 µM
- TGI (ACHN renal): > 100 µM
- TGI (SW-620 colon): > 100 µM
- TGI (BT-549 breast): > 100 µM
- TGI (CCRF-CEM leukemia): > 100 µM
- TGI (NCI-H460 lung): > 100 µM
- TGI (OVCAR-5 ovarian): > 100 µM
- TGI (K-562 leukemia): > 100 µM
